Values quoted from earlier work in patent US20240261238A1, “METHOD OF TREATING DRUG RESISTANT EPILEPSY” (ICAHN SCHOOL OF MEDICINE AT MOUNT SINAI, priority 2021, published 2024).

Key:
[1] = biological target: NMDA receptors; details: read-out: Ki for binding to NMDA receptors
[2] = iontophoretic patch, 33 men and women
[3] = intranasal for treatment of pain vs intravenous ketamine studies in depression
[4] = intranasal, total dose
[5] = 0.5 mg/kg intravenous infusion given over 40 minutes

SMILES: CN[C@]1(c2ccccc2Cl)CCCCC1=O [S(+)-ketamine]
- Ki [1]: 3200 nM
- potency relative to racemic mixture of ketamine [2]: two times more potent

SMILES: CN[C@@]1(c2ccccc2Cl)CCCCC1=O [R(−)]
- Ki [1]: 1100 nM

SMILES: CNC1(c2ccccc2Cl)CCCCC1=O (racemic) [ketamine, 2-(2-chlorophenyl)-2-(methylamino)-cyclohexanone]
- intranasal plasma levels lower than in intravenous studies [3]: 3-4 fold
- dose at which mild adverse effects (dysphoria and/or hallucinations) can occur [4]: greater than 50 mg
- dose usually required for mild adverse effects (dysphoria and/or hallucinations) [4]: greater than 100 mg
- duration of improvements in depression [5]: up to 1 week
- serious adverse events [5]: no serious adverse events
- time to improvements in depression post-injection [5]: ≤ 2 h
- serious adverse events caused by IV administration: No serious adverse events
- time by which side effects typically abate post-infusion (IV, euphoria, elevated BP, increased libido, perceptual disturbances): ≤ 80 min
